Laboratory results taken from patent US9193699B2, “Apoptosis inducing compounds” (INSTITUT NATIONAL DE LA SANTE ET DE LA RECHERCHE MEDICALE …, priority 2011, dated 2015).
Where two headings read alike, the source gives them in different places.

What was measured:
Type in all cases: cell-based
[1] = tested on: Human breast tumor SUM149 cells; test: Inhibition of tumor cell growth (alamar blue), SUM149; details: 120 h
Protocol: (§1) All biological experiments (Examples 2 to 9) have been performed with recommended cell line specific culture medium. For SUM149 and L226, culture medium is supplemented with 10% Fetal Calf Serum. For HME-1 and MCF-10A, culture medium is supplemented with 5% Horse Serum.
Human breast tumor SUM149 cells (Inflammatory Breast Cancer (IBC) of basal subtype) were plated in a 96 well plate at 3000 cells/100 μL at 37° C. in 5% CO2. Compounds 1, 3, 4, 5, 6, 7, 8, 9, 10, 11, 12, 13, 14 at 10 μM were added at day 0 and day 3. The number of viable cells was determined in triplicate at day 5 by incubating 10 μL of the alamar blue staining solution for 2 hours at 37° C. (FIG. 1).
(§2) Human breast tumor SUM149 cells were plated in a 96 well plate at 3000 cells/100 μL at 37° C. in 5% CO2. Serial dilutions of drugs (compounds 1, 3 or 4) ranging from 20 μM to 300 nM were added at day 0 and day 3. The number of viable cells was determined in triplicate at day 5 by incubating 10 μL of the alamar blue staining solution for 2 hours at 37° C. (FIG. 2).
IC50 values of compounds 1-14 for the inhibition of SUM149 and L226 tumor cells growth were measured (according to the experimental procedure of Examples 2 and 3):
Human breast tumor SUM149 cells were plated in a 96 well plate at 3000 cells/100 μL at 37° C. in 5% CO2 in recommended medium containing 10% FCS or in synthetic medium without FCS. Serial dilutions of drug (compound 4) ranging from 10 μM to 0.16 μM were added at day 0 and day 3. The number of viable cells was determined in triplicate at day 5 by incubating 10 μL of the alamar blue staining solution for 2 hours at 37° C. (FIG. 11). The […] in recommended medium containing 10% FCS was measured at 2 μM, while it was measured at 0.6 μM without FCS.

[2] = tested on: Human breast tumor L226 cells; test: Inhibition of tumor cell growth (alamar blue), L226; details: 120 h, calculated on the basis of cell growth inhibition, day 5, alamar blue
Protocol: as §1
Human breast tumor L226 cells (Inflammatory Breast Cancer (IBC) of ERB-B2 subtype) were plated in a 96 well plate at 3000 cells/100 μL at 37° C. in 5% CO2. Serial dilutions of drugs (compounds 1, 3 or 4) ranging from 20 μM to 300 nM were added at day 0 and day 3. The number of viable cells was determined in triplicate at day 5 by incubating 10 μL of the alamar blue staining solution for 2 hours at 37° C. (FIG. 3).
IC50 values of compounds 1-14 for the inhibition of SUM149 and L226 tumor cells growth were measured (according to the experimental procedure of Examples 2 and 3): […]

[3] = tested on: Human normal mammary epithelial MCF-10A cells; test: Effect on growth of normal cells (alamar blue), MCF-10A; details: calculated on the basis of cell growth inhibition
Protocol: as §1
as §2, with “normal mammary epithelial MCF-10A” for “breast tumor SUM149”, “5).” for “2).”
(§3) IC50 values of compounds 1-14 for the inhibition of MCF-10A and HME-1 normal cells growth were also measured (according to the experimental procedure of Examples 4 and 5): […]

[4] = tested on: Human normal mammary epithelial HME-1 cells; test: Effect on growth of normal cells (alamar blue), HME-1; details: HME1, calculated on the basis of cell growth inhibition
Protocol: as §1
as §2, with “normal mammary epithelial HME-1” for “breast tumor SUM149”, “4).” for “2).”
as §3

[5] = tested on: caspase-3 and caspase-7 in SUM149 cells; test: Caspase 3/7 activation (Caspase-Glo 3/7) in SUM149 tumor cells; details: Homo sapiens, R=RLU at 20 μM/RLU at 0 μM, 24 h, read-out: Caspase 3/7 activation R (RLU fold increase from untreated cells)
Protocol: (§4) Human breast tumor SUM149 cells were plated in a 96 well plate at 10000 cells/100 μL at 37° C. in 5% CO2. Serial dilutions of drugs (compounds 1, 3 or 4) ranging from 20 μM to 300 nM were added at day 0. Active caspase-3 and caspase-7 were measured in triplicate after 24 h treatment by incubating 50 μL of the Caspase-Glo 3/7 reagent for 60 min at 25° C. This reagent containing the proluminescent tetrapeptide sequence DEVD in a cell lysis buffer (Promega) (FIG. 6).
Caspase 3/7 activation in SUM149 and L226 tumor cells was measured.
(§5) The calculated values R correspond to Relative Luminescence Units (RLU) fold increase from untreated cells (R=RLU at 20 μM/RLU at 0 μM).

[6] = tested on: caspase-3 and caspase-7 in MCF-10A cells; test: Caspase 3/7 activation (Caspase-Glo 3/7) in MCF-10A normal cells; details: Homo sapiens, R=RLU at 20 μM/RLU at 0 μM, 24 h, read-out: Caspase 3/7 activation R (RLU fold increase from untreated cells)
Protocol: as §4, with “normal mammary epithelial MCF-10A” for “breast tumor SUM149”, “9).” for “6).”
as §5
(§6) Caspase 3/7 activation in MCF-10A and HME-1 normal cells was also measured.

[7] = tested on: caspase-3 and caspase-7 in HME-1 cells; test: Caspase 3/7 activation (Caspase-Glo 3/7) in HME-1 normal cells; details: Homo sapiens, HME1, R=RLU at 20 μM/RLU at 0 μM, 24 h, read-out: Caspase 3/7 activation R (RLU fold increase from untreated cells)
Protocol: as §4, with “normal mammary epithelial HME-1” for “breast tumor SUM149”, “8).” for “6).”
as §5, §6

[8] = calculated on the basis of cell growth inhibition, day 5, alamar blue, read-out: IC50 for the inhibition of SUM149 tumor cells growth

SMILES	IC50 [1, 8]	IC50 [2]	IC50 [3]	IC50 [4]	fold induction at 20 µM [5]	fold induction at 20 µM [6]	fold induction at 20 µM [7]	IC50 ([1]; recommended medium containing 10% FCS, day 5, read-out: IC50 of SUM149 cell growth in recommended medium)	IC50 ([1]; synthetic medium without FCS, day 5, read-out: IC50 of SUM149 cell growth without FCS)
Cc1c(C)c(C)c(S(=O)(=O)N2CCSC(C)(C)[C@@H]2C(=O)NO)c(C)c1C [Compound 12, (3S)—N-hydroxy-4-[(2,3,4,5,6-pentamethylphenyl)sulfonyl]-2,2-dimethyl-3-thiomorpholine carboxamide]	2500 nM	2000 nM	15000 nM	> 20000 nM	6.8	1.1	1.2	–	–
Cc1cc(C)c(C)c(S(=O)(=O)N2CCSC(C)(C)[C@@H]2C(=O)NO)c1C [Compound 4, (3S)—N-hydroxy-4-[(2,3,5,6-tetramethylphenyl)sulfonyl]-2,2-dimethyl-3-thiomorpholine carboxamide]	2500 nM	2500 nM	20000 nM	> 20000 nM	4.4	1	1	2000 nM	600 nM
